One may read the IC50 as the midpoint of a concentration-inhibition curve. A high value points to lower potency.

Bounds are passed on as bounds.

IC50 data for 51 compounds are collected here from BindingDB's records for doi:10.7270/Q2M043S8 (University of Pittsburgh, 2006).

For the assay, the target named is T1, Dual specificity protein phosphatase 6 (Rattus norvegicus, UniProt Q64346).
T1 sequence (Q64346 whole entry): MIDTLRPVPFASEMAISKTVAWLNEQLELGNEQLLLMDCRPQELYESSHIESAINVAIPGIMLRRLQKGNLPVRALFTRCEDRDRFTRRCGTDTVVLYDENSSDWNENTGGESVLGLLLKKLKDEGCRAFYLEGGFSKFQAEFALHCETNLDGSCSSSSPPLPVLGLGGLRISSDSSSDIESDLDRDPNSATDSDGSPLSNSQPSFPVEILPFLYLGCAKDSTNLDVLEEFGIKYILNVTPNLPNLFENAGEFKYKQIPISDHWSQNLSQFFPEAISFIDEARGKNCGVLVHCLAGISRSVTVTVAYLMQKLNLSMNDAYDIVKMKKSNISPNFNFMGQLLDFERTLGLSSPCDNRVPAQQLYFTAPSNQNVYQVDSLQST
The assay is described as follows: catalase influence on rat DUSP6 inhibition – biochemical, catalase added, probe assessment, dose response (AID 564).
With `Cc1ccc(C)n1-c1cccc(C(=O)O)c1`, the IC50 was above 50 µM.
Compound `O=C(Nc1ccc2nc(-c3ccco3)c(-c3ccco3)nc2c1)N1CCCCCC1` returned an IC50 above 50 µM.
Regarding `CCCCCC#CCC#CCC#CCC#CCCCC(=O)O`, the IC50 is above 50 µM.
Compound `Cn1ncnc2c(=O)n(C)c(=O)nc1-2` yielded an IC50 above 50 µM.
Compound `[O-]/[N+](=C\c1ccncc1)c1ccccc1` showed an IC50 above 50 µM.
Turning to `O=C1C=Cc2ccccc2C1=O` [1,2-dihydronaphthalene-1,2-dione], the IC50 is above 50 µM.
The compound `Cc1nc2cc(-c3cccc(F)c3)nn2c(C)c1CCC(=O)N1CCC2(CC1)OCCO2` [1-(1,4-dioxa-8-azaspiro[4.5]decan-8-yl)-3-[2-(3-fluorophenyl)-5,7-dimethyl-6-pyrazolo[1,5-a]pyrimidinyl]-1-propanone] displayed an IC50 above 50 µM.
`CCn1nc(-c2ccccc2)nc2c(=O)n(C)c(=O)nc1-2` [1-Ethyl-6-methyl-3-phenyl-1H-pyrimido[5,4-e][1,2,4]triazine-5,7-dione] registered an IC50 above 50 µM.
`Cc1cc(C)n2c(SCC(=O)N3CCN(S(=O)(=O)c4ccc(Cl)cc4)CC3)nnc2n1` [1-[4-(4-chlorophenyl)sulfonyl-1-piperazinyl]-2-[(5,7-dimethyl-[1,2,4]triazolo[4,3-a]pyrimidin-3-yl)thio]ethanone] showed a 50% inhibitory concentration (IC50) above 50 µM.
Under `[O-]/[N+](=C\c1ccc(OC(F)F)cc1)c1ccccc1` [1-[4-(difluoromethoxy)phenyl]-N-phenylmethanimine oxide] stands above 50 µM.
In turn, `CCCCn1c(SCC(=O)c2ccc(OC)cc2OC)nc2cc(S(N)(=O)=O)ccc21` [1-butyl-2-[2-(2,4-dimethoxyphenyl)-2-oxidanylidene-ethyl]sulfanyl-benzimidazole-5-sulfonamide] came in with an IC50 above 50 µM.
As for `CCn1nc(-c2cccs2)nc2c(=O)n(C)c(=O)nc1-2` [1-ethyl-6-methyl-3-thiophen-2-yl-pyrimido[5,4-e][1,2,4]triazine-5,7-dione], the IC50 is above 50 µM.
As to `O=C(Nc1ccccc1)c1ccc2nc(-c3ccco3)c(-c3ccco3)nc2c1` [2,3-di-2-furyl-N-phenyl-6-quinoxalinecarboxamide], the IC50 was above 50 µM.
`CC(C)Cn1c(N)c(C(=O)COC(=O)c2cc(-c3ccco3)nc3ccccc23)c(=O)n(C)c1=O` [2-(2-furanyl)-4-quinolinecarboxylic acid [2-[4-amino-1-methyl-3-(2-methylpropyl)-2,6-dioxo-5-pyrimidinyl]-2-oxoethyl] ester] showed an IC50 above 50 µM.
Under `CCOc1ccc(-c2cc3nc(C4CCN(C(=O)OC(C)(C)C)CC4)c(C(=O)O)cn3n2)cc1` [2-(4-ethoxyphenyl)-5-[1-[(2-methylpropan-2-yl)oxy-oxomethyl]-4-piperidinyl]-6-pyrazolo[1,5-a]pyrimidinecarboxylic acid] stands above 50 µM; under `COc1ccc(-c2cc3nc(C4CCN(C(=O)OC(C)(C)C)CC4)c(C(=O)O)cn3n2)cc1` [2-(4-methoxyphenyl)-5-[1-[(2-methylpropan-2-yl)oxy-oxomethyl]-4-piperidinyl]-6-pyrazolo[1,5-a]pyrimidinecarboxylic acid], above 50 µM; under `Cc1cccc(NC(=O)c2cc(NC(=O)C3CCCCC3C(=O)O)ccc2N2CCCCC2)c1` (stereo unspecified) [2-({[3-{[(3-methylphenyl)amino]carbonyl}-4-(1-piperidinyl)phenyl]amino}carbonyl)cyclohexanecarboxylic acid], above 50 µM.
`Cc1ccc(/C=C/C2=Cc3c(sc(NC(=O)CSc4nnc(N)[nH]4)c3C#N)C(C)(C)C2)o1` [2-[(5-azanyl-1H-1,2,4-triazol-3-yl)sulfanyl]-N-[3-cyano-7,7-dimethyl-5-[(E)-2-(5-methylfuran-2-yl)ethenyl]-6H-1-benzothiophen-2-yl]ethanamide] had an IC50 above 50 µM.
For `CCCCNC(=O)c1c(N)n(CCCOC)c2nc3ccccc3nc12` [2-amino-N-butyl-1-(3-methoxypropyl)-3-pyrrolo[3,2-b]quinoxalinecarboxamide] the value was above 50 µM.
Compound `N#Cc1c(N)sc(=S)c2c1CCN(Cc1ccccc1)C2` [3-Amino-7-benzyl-1-thioxo-5,6,7,8-tetrahydro-1H-thiopyrano[3,4-c]pyridine-4-carbonitrile] had an IC50 of 47.9 µM.
The compound `O=C1C=C(NCc2ccc(Cl)c(Cl)c2)CC1` [3-[(3,4-dichlorobenzyl)amino]cyclopent-2-en-1-one] registered a half-maximal inhibitory concentration (IC50) above 50 µM.
For `CCCSc1nnc(NC(=O)c2sc3nc(-c4cccs4)ccc3c2N)s1` [3-amino-N-(5-propylsulfanyl-1,3,4-thiadiazol-2-yl)-6-thiophen-2-ylthieno[2,3-b]pyridine-2-carboxamide] the value was above 50 µM; for `O=C1Nc2ccccc2SC(c2ccccc2)C1O` (stereo unspecified) [3-hydroxy-2-phenyl-2,3-dihydro-1,5-benzothiazepin-4(5H)-one], above 50 µM; for `CC(C)(C)N1C(=O)Cc2c1nc(N)c1c(N)nc(N3CCCCC3CO)c(C#N)c21` (stereo unspecified) [5,6-bis(azanyl)-3-tert-butyl-8-[2-(hydroxymethyl)piperidin-1-yl]-2-oxidanylidene-1H-pyrrolo[2,3-c][2,7]naphthyridine-9-carbonitrile], above 50 µM.
As for `COc1cc(/C=C(/C#N)c2ccc(F)cc2)ccc1OCc1ccc(C(=O)O)o1` [5-({4-[2-cyano-2-(4-fluorophenyl)vinyl]-2-methoxyphenoxy}methyl)-2-furoic acid], the IC50 is above 50 µM.
The compound `COc1ccc(Br)cc1C=c1sc2nc(-c3ccco3)nn2c1=O` [5-[(5-bromanyl-2-methoxy-phenyl)methylidene]-2-(furan-2-yl)-[1,3]thiazolo[3,2-b][1,2,4]triazol-6-one] came in with an IC50 above 50 µM.
Compound `CCOc1cc(/C=C(/C#N)c2ccc(F)cc2)ccc1OCc1ccc(C(=O)O)o1` [5-[[4-[(E)-2-cyano-2-(4-fluorophenyl)ethenyl]-2-ethoxyphenoxy]methyl]furan-2-carboxylic acid] yielded an IC50 above 50 µM.
Under `N#Cc1c(NC(=O)c2ccc(Br)o2)n(-c2ccccc2)c2nc3ccccc3nc12` [5-bromanyl-N-(3-cyano-1-phenyl-pyrrolo[3,2-b]quinoxalin-2-yl)furan-2-carboxamide] stands above 50 µM.
`Cc1cccc(N2CCN(C(=O)Cc3c(C(=O)O)[nH]c4ccc(Cl)cc34)CC2)c1C` [5-chloranyl-3-[2-[4-(2,3-dimethylphenyl)piperazin-1-yl]-2-oxidanylidene-ethyl]-1H-indole-2-carboxylic acid]: the IC50 was above 50 µM.
The compound `CCCCCNC(=O)c1ccc2c(=O)[nH]c3c(C(=O)NCC4CCCO4)sc(=S)n3c2c1` (stereo unspecified) [5-oxo-N3-(2-oxolanylmethyl)-N8-pentyl-1-sulfanylidene-4H-thiazolo[3,4-a]quinazoline-3,8-dicarboxamide] registered an IC50 above 50 µM.
The compound `Cc1nc2c(C(=O)NCCC3=CCCCC3)c[nH]n2c(=O)c1Cl` [6-chloro-N-(2-cyclohex-1-en-1-ylethyl)-7-hydroxy-5-methylpyrazolo[1,5-a]pyrimidine-3-carboxamide] yielded an IC50 above 50 µM.
With `O=C(c1cccs1)c1no[n+]([O-])c1C(=O)c1cccs1` [(5-oxidanidyl-4-thiophen-2-ylcarbonyl-1,2,5-oxadiazol-5-ium-3-yl)-thiophen-2-yl-methanone], the IC50 was above 50 µM.
Compound `Nc1c(N2CCCC2)cc(Cl)c2nonc12` [(7-chloro-5-pyrrolidino-benzofurazan-4-yl)amine] gave an IC50 above 50 µM.
`[O-]/[N+](=C/c1ccc(F)cc1)c1ccccc1` [(E)-(4-fluorobenzylidene)(phenyl)azane oxide]: the IC50 was above 50 µM.
`CC1=C(/C=C/C(C)=C/C=C/C(C)=C/C(=O)O)C(C)(C)CCC1` [ALL-TRANS-RETINOIC ACID]: the IC50 was above 50 µM.
The compound `CC(=O)[C@@H]1[C@@H]2C(=O)N(c3ccc(F)c(Cl)c3)C(=O)[C@@H]2C2c3ccccc3C=CN21` (stereo partly specified) [MLS000040594] gave an IC50 above 50 µM.
As to `COCCCn1c(N)c(C(=O)NCCC(C)C)c2nc3ccccc3nc21` [MLS000041744], the IC50 is above 50 µM.
Under `CCn1c(SCC(=O)Nc2ccc3c(c2)c2ccccc2n3CC)nnc1-c1ccco1` [MLS000050867] stands above 50 µM; under `O=C1C(=C2C(=O)c3ccccc3C2=O)Nc2ccccc21` [MLS000071738], above 50 µM; under `COc1ccc(-n2c(NC(=O)c3ccco3)c(C#N)c3nc4ccccc4nc32)cc1` [MLS000079925], above 50 µM.
For `COc1ccc(Cn2c(C)nc3c(c2=O)c2nc4ccccc4nc2n3Cc2ccco2)cc1` [MLS000079944], the IC50 stood at 47.8 µM.
The compound `Cc1ccc(-c2csc(NC(=O)c3ccno3)n2)cc1` [MLS000081820] came in with an IC50 above 50 µM.
`CC(C)Sc1nc2sc3c(c2c2nnc(SCC(=O)NCc4ccco4)n12)CCCC3` [MLS000082957] showed an IC50 above 50 µM.
`Nc1nc2c(s1)CCc1c-2cnn1-c1ccccc1` [MLS000085948] had an IC50 above 50 µM.
`Cc1cc(NC(=O)c2ccc(S(=O)(=O)N3CCCC3)cc2)nc2c1c(=O)oc1ccccc12` [MLS000091355]: the IC50 was above 50 µM.
Under `FC(F)(F)c1ccc(N2CCOCC2)c(Nc2nc3ccccc3n3cnnc23)c1` [MLS000093276] stands above 50 µM; under `COC(=O)c1ccccc1NC(=O)CN1C(=O)C2CCCN2c2ncc(Cl)cc21` (stereo unspecified) [MLS000094302], above 50 µM.
In the case of `CCc1ccc(NC(=O)CSc2nc3ccccc3c(=O)n2CCN2CCOCC2)cc1` [MLS000095236], the IC50 is above 50 µM.
Under `Cc1c(N=c2c(=O)c3ccccc3c2=O)c(=O)n(-c2ccccc2)n1C` [MLS000105950] stands above 50 µM; under `CCOc1ccc2noc3c2c1C(=O)c1ccccc1-3` [MLS000106837], above 50 µM.
As to `COc1ccc2noc3c2c1C(=O)c1ccccc1-3` [MLS000106874], the IC50 is above 50 µM.
